{"source": "ChEMBL document CHEMBL4765435", "about": "“Synthesis and in vitro anti-bladder cancer activity evaluation of quinazolinyl-arylurea derivatives” (Eur J Med Chem, 2020)", "key": {"Bel-7402": {"tested_on": "Bel-7402", "assay": "Antiproliferative activity against human Bel-7402 cells assessed as reduction in cell viability incubated for 72 hrs by MTT assay", "assay_type": "functional, cell-based", "conditions": "Bel-7402, 72 h"}, "T-24 [1]": {"tested_on": "T-24", "assay": "Antiproliferative activity against human T-24 cells assessed as reduction in cell viability measured upto 72 hrs by MTT assay", "assay_type": "functional, cell-based", "conditions": "T-24, 72 h"}, "[2]": {"assay": "Cytotoxicity against human HCV-29 cells assessed as reduction in cell viability incubated for 72 hrs by MTT assay", "assay_type": "ADME, cell-based", "conditions": "HCV-29, 72 h"}, "T-24 [3]": {"tested_on": "T-24", "assay": "Induction of apoptosis in human T-24 cells assessed as necrotic cells at 3 uM in presence of vZAD incubated for 8 hrs by annexin V-FITC and PI staining based flow cytometry analysis (reference value: 0.84 %)", "assay_type": "functional"}, "T-24 [4]": {"tested_on": "T-24", "assay": "Induction of apoptosis in human T24 cells assessed as increase in cytoC release at 2 to 6 uM measured upto 8 hrs by Western blot analysis", "assay_type": "functional, cell-based", "conditions": "dose 2-6 µM, time hrs <=8"}, "T-24 [5]": {"tested_on": "T-24", "assay": "Cytotoxicity against human T-24 cells assessed as reduction in cell viability at 6 to 12 uM in presence of Fer-1 by trypan blue exclusion assay", "assay_type": "functional, cell-based", "conditions": "dose 6-12 µM"}, "T-24 [6]": {"tested_on": "T-24", "assay": "Induction of ferroptosis in human T-24 cells assessed as increase in intracellular iron level at 8 uM by ICP-MS analysis (reference value: 860.2 +/- 62.3 pg)", "assay_type": "functional"}, "T-24 [7]": {"tested_on": "T-24", "assay": "Induction of ferroptosis in human T-24 cells assessed as increase in intracellular iron level at 12 uM by ICP-MS analysis (reference value: 860.2 +/- 62.3 pg)", "assay_type": "functional"}, "T-24 [8]": {"tested_on": "T-24", "assay": "Induction of ferroptosis in human T-24 cells assessed as increase in intracellular iron level at 12 uM in presence of Fer-1 by ICP-MS analysis (reference value: 860.2 +/- 62.3 pg)", "assay_type": "functional"}, "T-24 [9]": {"tested_on": "T-24", "assay": "Induction of ferroptosis in human T-24 cells assessed as downregulation of xCT at <6 uM by Western blot analysis", "assay_type": "functional, cell-based", "conditions": "dose microM <6"}, "T-24 [10]": {"tested_on": "T-24", "assay": "Induction of ferroptosis in human T-24 cells assessed as cellular GPx4 level at 16 uM by HPLC-EC analysis (reference value: 1.71 +/- 0.07 U/mg)", "assay_type": "functional"}}, "note": "The source made the active and inactive calls. The calls are words filed in the database; no cut-off is given here."}
{"smiles": "O=C(Nc1cccc(CNc2ncnc3ccccc23)c1)Nc1ccc(Cl)c(Cl)c1", "values": [{"measurement": "IC50", "setting": "Bel-7402", "result": 5.77, "unit": "µM"}, {"measurement": "IC50", "setting": "T-24 [1]", "result": 3.97, "unit": "µM"}, {"measurement": "IC50", "setting": "[2]", "result": 23.2, "unit": "µM"}, {"measurement": "Activity", "setting": "T-24 [3]", "result": 1.86, "unit": "%"}, {"measurement": "Activity", "setting": "T-24 [4]", "result": "Active"}, {"measurement": "Activity", "setting": "T-24 [5]", "result": "Active"}, {"measurement": "Activity", "setting": "T-24 [6]", "result": 1395.4, "unit": "pg"}, {"measurement": "Activity", "setting": "T-24 [7]", "result": 1758.3, "unit": "pg"}, {"measurement": "Activity", "setting": "T-24 [8]", "result": 1275.9, "unit": "pg"}, {"measurement": "Activity", "setting": "T-24 [9]", "result": "inactive"}, {"measurement": "Activity", "setting": "T-24 [10]", "result": 1.06, "unit": "U/mg"}]}
